From patent US5622962A, “5α-reductase inhibitors” (priority 1995, dated 1997)

Assays:
[1] = target: T1, Type I 5α-Reductase from Human Scalp (Homo sapiens, UniProt P18405); assay: Human Type I 5α-reductase assay (conversion of [3H]-testosterone to 5α-reduced metabolites); assay type: biochemical; conditions: pH 7.5, 0.3 μM; 50 nM [3H]-testosterone, pH 7.5, 25°, 180 min; compared to control reaction mixtures; read-out: percent inhibition of Type I AR
T1 construct: Scalp punch biopsies from graft recipient sites were obtained from human hair transplant procedures; from tissue; host or cells: human scalp punch biopsies (hair transplant graft recipient sites), homogenate, 100,000×g pellet
T1 sequence (P18405 1-259): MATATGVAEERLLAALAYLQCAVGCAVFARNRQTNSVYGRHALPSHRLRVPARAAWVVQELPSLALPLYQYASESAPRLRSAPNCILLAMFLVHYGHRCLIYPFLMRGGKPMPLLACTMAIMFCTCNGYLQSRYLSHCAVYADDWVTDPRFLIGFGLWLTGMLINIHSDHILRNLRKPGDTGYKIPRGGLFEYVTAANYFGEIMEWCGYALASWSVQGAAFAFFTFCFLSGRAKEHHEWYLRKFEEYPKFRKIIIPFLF

[2] = target: T2, Type II 5α-Reductase from Human Prostate (Homo sapiens, UniProt P31213); assay: Human Type II 5α-reductase assay (conversion of [3H]-testosterone to 5α-reduced metabolites); assay type: biochemical; conditions: sodium acetate pH 5.5, 25°, 30 min, compared to control reaction mixtures; for inhibition at 0.3 µM: pH 5.5, 0.3 μM, read-out: percent inhibition of Type II AR; for percent inhibition of Type II AR: 0.3 μM
T2 construct: The same procedure as above was used for preparations using tissue from prostate surgery; from tissue; host or cells: human prostate tissue from surgery, homogenate, 100,000×g pellet
T2 sequence (P31213 1-254): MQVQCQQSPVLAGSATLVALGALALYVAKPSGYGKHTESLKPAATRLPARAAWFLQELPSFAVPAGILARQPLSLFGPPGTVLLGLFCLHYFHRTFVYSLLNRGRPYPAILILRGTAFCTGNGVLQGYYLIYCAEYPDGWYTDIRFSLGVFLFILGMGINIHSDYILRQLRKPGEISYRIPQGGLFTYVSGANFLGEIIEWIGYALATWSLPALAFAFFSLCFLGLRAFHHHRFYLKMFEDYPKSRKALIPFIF

Row | SMILES | inhibition at 0.3 µM [1] | inhibition at 0.3 µM [2] | percent inhibition of Type II AR [2]
1 | COc1cccc2sc(Sc3ccc4c(c3)CC[C@H]3N(C)C(=O)CC[C@]43C)nc12 [Example 182, (+)-(4aR)-(10bR)-4-methyl-8-(4-methoxy-2-benzothiazolylthio)-10b-methyl-1,2,3,4,4a,5,6,10b-octahydrobenzo[f]quinolin-3-one] | 63% | 100% | 
2 | CN1C(=O)CC[C@]2(C)c3ccc(Sc4nc5cc(Cl)c(Cl)cc5s4)cc3CC[C@@H]12 [Example 165, (+)-(4aR)-(10bR)-4-methyl-8-(5,6-dichloro-2-benzothiazolylthio)-10b-methyl-1,2,3,4,4a,5,6,10b-octahydrobenzo[f]-quinolin-3-one] | 61% | 74% | 
3 | CN1C(=O)CC[C@]2(C)c3ccc(-c4ccc5c(ccn5C(=O)OC(C)(C)C)c4)cc3CC[C@@H]12 [Example 250, (+)-(4aR)-(10bR)-4-methyl-8-(1-[t-butoxycarbonyl]-5-indolyl)-10b-methyl-1,2,3,4,4a,5,6,10b-octahydrobenzo[f]quinolin-3-one] | 83% | 1% | 
4 | CN1C(=O)CC[C@]2(C)c3ccc(Sc4nc5c(-c6ccccc6)cccc5s4)cc3CC[C@@H]12 [Example 184, (+)-(4aR)-(10bR)-4-methyl-8-(4-phenyl-2-benzothiazolylthio)-10b-methyl-1,2,3,4,4a,5,6,10b-octahydrobenzo[f]quinolin-3-one] | 73% | 81% | 
5 | CN1C(=O)CC[C@]2(C)c3ccc(C(=O)OCc4ccccc4)cc3CC[C@@H]12 [Example 144, (+)-(4aR)-(10bR)-4-methyl-8-benzyloxycarbonyl-10b-methyl-1,2,3,4,4a,5,6,10b-octahydrobenzo[f]quinolin-3-one] | 90% | 40% | 
6 | C[C@]12CCC(=O)N[C@@H]1CCc1cc(Sc3cccc4cccnc34)ccc12 [Example 20, (+)-(4aR)-(10bR)-8-(8-quinolinylthio)-10b-methyl-1,2,3,4,4a,5,6,10b-octahydrobenzo[f]quinolin-3-one] | 22% | 48% | 
7 | CN1C(=O)CC[C@]2(C)c3ccc(Sc4ccc5cc([N+](=O)[O-])ccc5n4)cc3CC[C@@H]12 [Example 168, (+)-(4aR)-(10bR)-4-methyl-8-(6-nitro-2-quinolinylthio)-10b-methyl-1,2,3,4,4a,5,6,10b-octahydrobenzo[f]quinolin-3-one] | 85% | 41% | 
8 | CN1C(=O)CC[C@]2(C)c3ccc(Sc4ccccn4)cc3CC[C@@H]12 [Example 111, (+)-(4aR)-(10bR)-4,10b-dimethyl-8-(2-pyridinylthio)-1,2,3,4,-4a,5,6,10b-octahydrobenzo[f]quinolin-3-one] | 44% | 38% | 
9 | CCc1cccc2sc(Sc3ccc4c(c3)CC[C@H]3N(C)C(=O)CC[C@]43C)nc12 [Example 187, (+)-(4aR)-(10bR)-4-methyl-8-(4-ethyl-2-benzothiazolylthio)-10b-methyl-1,2,3,4,4a,5,6,10b-octahydrobenzo[f]quinolin-3-one] | 93% | 94% | 
10 | CN1C(=O)CC[C@]2(C)c3ccc(-c4cccc(-c5ccccc5)c4)cc3CC[C@@H]12 [Example 55, (+)-(4aR)-(10bR)-4-methyl-8-(3-biphenyl)-10b-methyl-1,2,3,4,4a,5,6,10b-octahydrobenzo[f]quinolin-3-one] | 68% | 11% | 

Other lines, results leading:

Row | inhibition at 0.3 µM [1] | inhibition at 0.3 µM [2] | percent inhibition of Type II AR [2] | SMILES
11 | 65% | 36% |  | CN1C(=O)CC[C@]2(C)c3ccc(-c4ccc(O)c(F)c4)cc3CC[C@@H]12 [Example 28, (+)-(4aR)-(10bR)-4-methyl-8-(3-fluoro-4-hydroxyphenyl)-10b-methyl-1,2,3,4,4a,5,6,10b-octahydrobenzo[f]quinolin-3-one]
12 | 66% | 51% |  | CN1C(=O)CC[C@]2(C)c3ccc(-c4cccc([N+](=O)[O-])c4)cc3CC[C@@H]12 [Example 86, (+)-(4aR)-(10bR)-4-methyl-8-(3-nitrophenyl)-10b-methyl-1,2,3,4,4a,5,6,10b-octahydrobenzo[f]quinolin-3-one]
13 | 83% | 46% |  | CCCCc1ccc(-c2ccc3c(c2)CC[C@H]2N(C)C(=O)CC[C@]32C)cc1 [Example 76, (+)-(4aR)-(10bR)-4-methyl-8-(4-n-butylphenyl)-10b-methyl-1,2,3,4,4a,5,6,10b-octahydrobenzo[f]quinolin-3-one]
14 | 88% | 46% | 33% | CN1C(=O)CC[C@]2(C)c3ccc(-c4ccc(Cl)c(Cl)c4)cc3CC[C@@H]12 [Example 77, (+)-(4aR)-(10bR)-4-methyl-8-(3,4-dichlorophenyl)-10b-methyl-1,2,3,4,4a,5,6,10b-octahydrobenzo[f]quinolin-3-one]
15 | 97% | 25% |  | CN1C(=O)CC[C@]2(C)c3ccc(-c4cc(F)cc(F)c4)cc3CC[C@@H]12 [Example 227, (+)-(4aR)-(10bR)-4-methyl-8-(3,5-difluorophenyl)-10b-methyl-1,2,3,4,4a,5,6,10b-octahydrobenzo[f]quinolin-3-one]
16 | 72% | 29% |  | CC(=O)N1CCc2cc(-c3ccc4c(c3)CC[C@H]3N(C)C(=O)CC[C@]43C)ccc21 [Example 238, (+)-(4aR)-(10bR)-4-methyl-8-(1-acetylindolin-5-yl)-10b-methyl-1,2,3,4,4a,5,6,10b-octahydrobenzo[f]quinolin-3-one]
17 | 55% | 40% |  | CN1C(=O)CC[C@]2(C)c3ccc(-c4cc(C(F)(F)F)ccc4Cl)cc3CC[C@@H]12 [Example 33, (+)-(4aR)-(10bR)-4-methyl-8-(2-chloro-5-trifluoromethylphenyl)-10b-methyl-1,2,3,4,4a,5,6,10b-octahydrobenzo[f]-quinolin-3-one]
18 | 93% | 37% |  | CSc1ccc(-c2ccc3c(c2)CC[C@H]2N(C)C(=O)CC[C@]32C)cc1 [Example 120, (+)-(4aR)-(10bR)-4-methyl-8-(4-methylthiophenyl)-10b-methyl-1,2,3,4,4a,5,6,10b-octahydrobenzo[f]quinolin-3-one]
19 | 68% | 10% |  | CN1C(=O)CC[C@]2(C)c3ccc(-c4cc(Cl)cc(Cl)c4)cc3CC[C@@H]12 [Example 52, (+)-(4aR)-(10bR)-4-methyl-8-(3,5-dichlorophenyl)-10b-methyl-1,2,3,4,4a,5,6,10b-octahydrobenzo[f]quinolin-3-one]
20 | 31% | 14% |  | CN1C(=O)CC[C@]2(C)c3ccc(-c4ccc(C(F)(F)F)cn4)cc3CC[C@@H]12 [Example 259, (+)-(4aR)-(10bR)-4-methyl-8-(2-[5-trifluoromethyl]pyridinyl)-10b-methyl-1,2,3,4,4a,5,6,10b-octahydrobenzo[f]quinolin-3-one]
21 | 70% | 29% |  | CN1C(=O)CC[C@]2(C)c3ccc(-c4cc(C(F)(F)F)ccc4F)cc3CC[C@@H]12 [Example 211, (+)-(4aR)-(10bR)-4-methyl-8-(2-fluoro-5-trifluoromethylphenyl)-10b-methyl-1,2,3,4,4a,5,6,10b-octahydrobenzo[f]-quinolin-3-one quinolin-3-one]
22 | 78% | 26% |  | CN1C(=O)CC[C@]2(C)c3ccc(-c4ccc5c(c4)OCCO5)cc3CC[C@@H]12 [Example 29, (+)-(4aR)-(10bR)-4-methyl-8-(3,4-ethylenedioxyphenyl)-10b-methyl-1,2,3,4,4a,5,6,10b-octahydrobenzo[f]quinolin-3-one]
23 | 19% | 12% |  | CN1C(=O)CC[C@]2(C)c3ccc(C(=O)c4ccccc4Cl)cc3CC[C@@H]12 [Example 288, (4aR)-(10bR)-8-(2-chlorobenzoyl)-4,10b-dimethyl-1,2,3,4,4a,5,6,10b-octahydrobenzo[f]quinolin-3-one]
24 | 78% | 63% |  | CN1C(=O)CC[C@]2(C)c3ccc(Sc4nc5ccc(Cl)cc5s4)cc3CC[C@@H]12 [Example 158, (+)-(4aR)-(10bR)-4-methyl-8-(6-chloro-2-benzothiazolylthio)-10b-methyl-1,2,3,4,4a,5,6,10b-octahydrobenzo[f]quinolin-3-one]
25 | 69% | 60% | 57% | CN1C(=O)CC[C@]2(C)c3ccc(-c4cnc5ccccc5c4)cc3CC[C@@H]12 [Example 201, (+)-(4aR)-(10bR)-4-methyl-8-(3-quinolinyl)-10b-methyl-1,2,3,4,4a,5,6,10b-octahydrobenzo[f]quinolin-3-one]
